From PubChem BioAssay AID1963837 (Molecular Pharmacology Branch, DTP, NCI, 2024)

System: 843126-344-R-J1-PDC complex spheroid viability
Assay: Anticancer human tumor 843126-344-R-J1-PDC patient-derived melanoma cell line growth inhibition [POLQ]
Settings: for IC50: curve of first compound; for viability, T/C: stronger effect = lower value
Outline: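 Complex spheroid viability model combining PDC tumour cells with endothelial (HUVEC) and MSC stromal cells. Novobiocin, ART-558 or RP6685 were tested singly and in combination with standard and investigational anticancer drugs. Each was titrated in half-log steps from near clinical Cmax, or from 10 microM where Cmax was unknown.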

[1] = second compound 0.0316 µM, first compound 0.0316 µM
[2] = second compound 0.0316 µM, first compound 0.1 µM
[3] = second compound 0.0316 µM, first compound 0.316 µM
[4] = second compound 0.0316 µM, first compound 1 µM
[5] = second compound 0.0316 µM, first compound 3.16 µM
[6] = second compound 0.0316 µM, first compound 10 µM
[7] = second compound 0.1 µM, first compound 0.0316 µM
[8] = second compound 0.1 µM, first compound 0.1 µM
[9] = second compound 0.1 µM, first compound 0.316 µM
[10] = second compound 0.1 µM, first compound 1 µM
[11] = second compound 0.1 µM, first compound 3.16 µM
[12] = second compound 0.1 µM, first compound 10 µM
[13] = second compound 0.316 µM, first compound 0.0316 µM
[14] = second compound 0.316 µM, first compound 0.1 µM
[15] = second compound 0.316 µM, first compound 0.316 µM
[16] = second compound 0.316 µM, first compound 1 µM
[17] = second compound 0.316 µM, first compound 3.16 µM
[18] = second compound 0.316 µM, first compound 10 µM
[19] = second compound 1 µM, first compound 0.0316 µM
[20] = second compound 1 µM, first compound 0.1 µM
[21] = second compound 1 µM, first compound 0.316 µM
[22] = second compound 1 µM, first compound 1 µM
[23] = second compound 1 µM, first compound 3.16 µM
[24] = second compound 1 µM, first compound 10 µM
[25] = second compound 3.16 µM, first compound 0.0316 µM
[26] = second compound 3.16 µM, first compound 0.1 µM
[27] = second compound 3.16 µM, first compound 0.316 µM
[28] = second compound 3.16 µM, first compound 1 µM
[29] = second compound 3.16 µM, first compound 3.16 µM
[30] = second compound 3.16 µM, first compound 10 µM
[31] = second compound 10 µM, first compound 0.0316 µM
[32] = second compound 10 µM, first compound 0.1 µM
[33] = second compound 10 µM, first compound 0.316 µM
[34] = second compound 10 µM, first compound 1 µM
[35] = second compound 10 µM, first compound 3.16 µM
[36] = second compound 10 µM, first compound 10 µM
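Throughout, for viability, T/C: spheroids exposed to drugs for seven days before readout.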

`CC(C)n1c(=O)n(C)c2cnc3cc(F)c(-c4ccc(OCCCN5CCCCC5)nc4)cc3c21` + COC1C(OC(N)=O)C(O)C(Oc2ccc3c(O)c(NC(=O)c4ccc(O)c(CC=C(C)C)c4)c(=O)oc3c2C)OC1(C)C showed an IC50 (second compound 0.0316 µM) of over 10 µM, an IC50 (second compound 0.1 µM) of over 10 µM and an IC50 (second compound 0.316 µM) of over 10 µM. For the same molecule, the IC50 (second compound 1 µM) was over 10 µM, the IC50 (second compound 3.16 µM) was over 10 µM and the IC50 (second compound 10 µM) was over 10 µM. For the same molecule, the viability, T/C [1] was 79.6%, the viability, T/C [2] was 85.9% and the viability, T/C [3] was 94.7%. The viability, T/C [4] was 86.4%, the viability, T/C [5] was 77.2% and the viability, T/C [6] was 70.5%. It also gave a viability, T/C [7] of 81.1%, a viability, T/C [8] of 69.3% and a viability, T/C [9] of 85%. For the same molecule, the viability, T/C [10] was 94.8%, the viability, T/C [11] was 74.8% and the viability, T/C [12] was 76.1%. It also gave a viability, T/C [13] of 90.8%, a viability, T/C [14] of 76.2% and a viability, T/C [15] of 79.8%. It also gave a viability, T/C [16] of 91.1%, a viability, T/C [17] of 70.3% and a viability, T/C [18] of 67.8%. It also gave a viability, T/C [19] of 95.5%, a viability, T/C [20] of 82.4% and a viability, T/C [21] of 76.3%. For the same molecule, the viability, T/C [22] was 78%, the viability, T/C [23] was 87.6% and the viability, T/C [24] was 69.6%. It also gave a viability, T/C [25] of 68.8%, a viability, T/C [26] of 82.8% and a viability, T/C [27] of 80.4%. For the same molecule, the viability, T/C [28] was 101%, the viability, T/C [29] was 77.3% and the viability, T/C [30] was 66.4%. For the same molecule, the viability, T/C [31] was 79%, the viability, T/C [32] was 80.4% and the viability, T/C [33] was 81.7%. For the same molecule, the viability, T/C [34] was 79.8%, the viability, T/C [35] was 75.8% and the viability, T/C [36] was 68.3%.

`CC1COCCN1c1cc(C2(S(C)(=N)=O)CC2)nc(-c2ccnc3[nH]ccc23)n1` (stereo not drawn) + COC1C(OC(N)=O)C(O)C(Oc2ccc3c(O)c(NC(=O)c4ccc(O)c(CC=C(C)C)c4)c(=O)oc3c2C)OC1(C)C was tested, and the IC50 (second compound 0.0316 µM) was over 10 µM, the IC50 (second compound 0.1 µM) was over 10 µM and the IC50 (second compound 0.316 µM) was over 10 µM. For the same molecule, the IC50 (second compound 1 µM) was 8.62 µM, the IC50 (second compound 3.16 µM) was 9.28 µM and the IC50 (second compound 10 µM) was 9.69 µM. The viability, T/C [1] was 99%, the viability, T/C [2] was 98% and the viability, T/C [3] was 110%. It also gave a viability, T/C [4] of 99.6%, a viability, T/C [5] of 59.2% and a viability, T/C [6] of 55.9%. It also gave a viability, T/C [7] of 90.9%, a viability, T/C [8] of 80.3% and a viability, T/C [9] of 97.6%. The viability, T/C [10] was 80.6%, the viability, T/C [11] was 65.7% and the viability, T/C [12] was 55.3%. The viability, T/C [13] was 103%, the viability, T/C [14] was 79.8% and the viability, T/C [15] was 81.2%. The viability, T/C [16] was 89%, the viability, T/C [17] was 56.9% and the viability, T/C [18] was 53.5%. For the same molecule, the viability, T/C [19] was 84.6%, the viability, T/C [20] was 88.3% and the viability, T/C [21] was 78.5%. The viability, T/C [22] was 96.3%, the viability, T/C [23] was 69.2% and the viability, T/C [24] was 47.1%. For the same molecule, the viability, T/C [25] was 87.1%, the viability, T/C [26] was 89.1% and the viability, T/C [27] was 89%. The viability, T/C [28] was 79.5%, the viability, T/C [29] was 74% and the viability, T/C [30] was 48%. It also gave a viability, T/C [31] of 94.8%, a viability, T/C [32] of 101% and a viability, T/C [33] of 74.1%. It also gave a viability, T/C [34] of 89.7%, a viability, T/C [35] of 69.3% and a viability, T/C [36] of 48.7%.

Work on `COc1ccc([C@@H](O)c2cc(-c3ncnc4cc(N5CCOCC5)ccc34)c(F)cc2Cl)nn1` + COC1C(OC(N)=O)C(O)C(Oc2ccc3c(O)c(NC(=O)c4ccc(O)c(CC=C(C)C)c4)c(=O)oc3c2C)OC1(C)C yielded an IC50 (second compound 0.0316 µM) of over 10 µM, an IC50 (second compound 0.1 µM) of over 10 µM and an IC50 (second compound 0.316 µM) of 7.08 µM. For the same molecule, the IC50 (second compound 1 µM) was over 10 µM, the IC50 (second compound 3.16 µM) was over 10 µM and the IC50 (second compound 10 µM) was 9.31 µM. For the same molecule, the viability, T/C [1] was 116%, the viability, T/C [2] was 82.3% and the viability, T/C [3] was 105%. The viability, T/C [4] was 84.7%, the viability, T/C [5] was 85.7% and the viability, T/C [6] was 53.4%. The viability, T/C [7] was 85.8%, the viability, T/C [8] was 85.7% and the viability, T/C [9] was 116%. It also gave a viability, T/C [10] of 79.5%, a viability, T/C [11] of 81.6% and a viability, T/C [12] of 54.1%. The viability, T/C [13] was 93.4%, the viability, T/C [14] was 98.2% and the viability, T/C [15] was 92.8%. For the same molecule, the viability, T/C [16] was 89%, the viability, T/C [17] was 63% and the viability, T/C [18] was 44.4%. For the same molecule, the viability, T/C [19] was 95.8%, the viability, T/C [20] was 80.1% and the viability, T/C [21] was 92.8%. It also gave a viability, T/C [22] of 91%, a viability, T/C [23] of 85.6% and a viability, T/C [24] of 54.9%. The viability, T/C [25] was 87.8%, the viability, T/C [26] was 102% and the viability, T/C [27] was 90.3%. For the same molecule, the viability, T/C [28] was 73.8%, the viability, T/C [29] was 85% and the viability, T/C [30] was 49.9%. For the same molecule, the viability, T/C [31] was 87%, the viability, T/C [32] was 76% and the viability, T/C [33] was 109%. The viability, T/C [34] was 76%, the viability, T/C [35] was 69.6% and the viability, T/C [36] was 48.5%.

In the case of `Cn1ncnc1[C@H]1c2n[nH]c(=O)c3cc(F)cc(c23)N[C@@H]1c1ccc(F)cc1` + COC1C(OC(N)=O)C(O)C(Oc2ccc3c(O)c(NC(=O)c4ccc(O)c(CC=C(C)C)c4)c(=O)oc3c2C)OC1(C)C, the IC50 (second compound 0.0316 µM) is reported as over 0.1 µM, the IC50 (second compound 0.1 µM) is reported as over 0.1 µM and the IC50 (second compound 0.316 µM) is reported as over 0.1 µM. The IC50 (second compound 1 µM) was over 0.1 µM, the IC50 (second compound 3.16 µM) was over 0.1 µM and the IC50 (second compound 10 µM) was over 0.1 µM. For the same molecule, the viability, T/C (second compound 0.0316 µM, first compound 0.000316 µM) was 83.3%, the viability, T/C (second compound 0.0316 µM, first compound 0.001 µM) was 87.8% and the viability, T/C (second compound 0.0316 µM, first compound 0.00316 µM) was 108%. The viability, T/C (second compound 0.0316 µM, first compound 0.01 µM) was 106%, the viability, T/C [1] was 97.8% and the viability, T/C [2] was 76.5%. The viability, T/C (second compound 0.1 µM, first compound 0.000316 µM) was 96.7%, the viability, T/C (second compound 0.1 µM, first compound 0.001 µM) was 103% and the viability, T/C (second compound 0.1 µM, first compound 0.00316 µM) was 93.5%. It also gave a viability, T/C (second compound 0.1 µM, first compound 0.01 µM) of 91.8%, a viability, T/C [7] of 121% and a viability, T/C [8] of 87.2%. The viability, T/C (second compound 0.316 µM, first compound 0.000316 µM) was 90.1%, the viability, T/C (second compound 0.316 µM, first compound 0.001 µM) was 109% and the viability, T/C (second compound 0.316 µM, first compound 0.00316 µM) was 81.2%. It also gave a viability, T/C (second compound 0.316 µM, first compound 0.01 µM) of 102%, a viability, T/C [13] of 90.3% and a viability, T/C [14] of 94.2%. For the same molecule, the viability, T/C (second compound 1 µM, first compound 0.000316 µM) was 89.7%, the viability, T/C (second compound 1 µM, first compound 0.001 µM) was 106% and the viability, T/C (second compound 1 µM, first compound 0.00316 µM) was 105%. For the same molecule, the viability, T/C (second compound 1 µM, first compound 0.01 µM) was 84.3%, the viability, T/C [19] was 118% and the viability, T/C [20] was 76.1%. The viability, T/C (second compound 3.16 µM, first compound 0.000316 µM) was 85.1%, the viability, T/C (second compound 3.16 µM, first compound 0.001 µM) was 99.1% and the viability, T/C (second compound 3.16 µM, first compound 0.00316 µM) was 101%. It also gave a viability, T/C (second compound 3.16 µM, first compound 0.01 µM) of 89.9%, a viability, T/C [25] of 120% and a viability, T/C [26] of 94.1%. The viability, T/C (second compound 10 µM, first compound 0.000316 µM) was 83.9%, the viability, T/C (second compound 10 µM, first compound 0.001 µM) was 102% and the viability, T/C (second compound 10 µM, first compound 0.00316 µM) was 101%. For the same molecule, the viability, T/C (second compound 10 µM, first compound 0.01 µM) was 86.9%, the viability, T/C [31] was 80.9% and the viability, T/C [32] was 81.7%.
